# According to patent publication US3984390A, “Novel process for producing phleomycin group antibiotics” (Zaidan Hojin Biseibutsu Kagaku Kenkyu Kai, priority 1972, dated 1976):
# Assays:
# [1] = test system: Mycobacterium smegmatis 607; assay: Antimicrobial potency, cylinder agar plate method, Bleomycin A2 (copper-free base) assumed as 1000 U/mg; assay type: cell-based; settings: Mycobacterium smegmatis 607
# Experimental: 1. Antimicrobial potency was assayed by a cylinder agar plate method on the basis of Bleomycin A2 (copper-free base) assumed as 1000 U/mg, using Mycobacterium smegmatis 607 as test organism.
# ^(1) Assayed by a cylinder-agar plate method using Mycobacterium
# smegmatis 607 as test organism, the potency of bleomycin A2
# (copper-free base) being assumed as 1000 unit/mg.
# The resulting compound has 0.65 of Rf value of the Silica gel thin layer chromatograph (CH3 OH: 10 %-CH3 COONH4 : 10 %-NH4 OH = 10 : 9 : 1) and 0.53 of Rf value of the Avicel thin layer chromatography (n-C3 H7 OH : pyridine : CH3 COOH : H2 O = 15 : 10 : 3 : 12) which are same with those of the 3-morpholinopropylaminobleomycin. The antimicrobial activity to Mycobacterium smegmatis 607 by the cylinder-agar plate method (the standard copper-free bleomycin A2 free base 1,000 U/mg) was 605 U/mg.
# [2] = test system: Ehrlich ascites carcinoma; assay: Antitumor activity and toxicity in ICR-SLC mouse inoculated with Ehrlich ascites carcinoma, i.p. for ten consecutive days; assay type: in vivo; settings: for Chemotherapeutic index: Table 5, ten consecutive days into peritoneal cavity, evaluated 50 days after beginning
# Experimental: The phleomycin was administered for ten consecutive days into peritoneal cavity of a ICR-SLC mouse, into which Ehrlich ascites carcinoma had been inoculated. Fifty days after the beginning of the experiment, measurements were made for (1) the number of dead mouse owing to toxicity, (2) the number of survived mouse, (3) mean survival period in 50 days, and (4) the ratio of mean survival period to that of reference mouse multiplied by 100. The chemotherapeutic index was calculated from the values of ED50 (50 % effective dose) and LD50 (50 % lethal dose) which were obtained as given below.
# ED50 value: The maximum dose level within the range of logevity ratio of 100 to 200.
# LD50 value: Calculated according to Behrens-Karber method from the data of (1) and (2).
# ^(2) A bleomycin was administered for ten consecutive days into
# peritoneal cavity of a ICR-SLC mouse, where Ehrlich ascites carcinoma had
# been inoculated, and 50 days after the beginning of experiment the […]
# [3] = bleomycins of Table 5, bleomycin A2 (copper-free base) = 1000 unit/mg
# [4] = 0.19 mg/kg/day for 10 days i.p.
# [5] = 0.39 mg/kg/day for 10 days i.p.
# [6] = 0.78 mg/kg/day for 10 days i.p.
# [7] = 1.56 mg/kg/day for 10 days i.p.
# [8] = 3.12 mg/kg/day for 10 days i.p.
# [9] = 6.25 mg/kg/day for 10 days i.p.
# [10] = 12.5 mg/kg/day for 10 days i.p.
# [11] = 25.0 mg/kg/day for 10 days i.p.
molecule,measurement,setting,value
3-N-Cyclohexylaminopropylaminobleomycin,Antimicrobial potency,[1]; [3],6560 Unit/mg
same,Chemotherapeutic index,[2],16.3
3-Piperidinopropylaminobleomycin,Antimicrobial potency,[1]; [3],1257 Unit/mg
same,Chemotherapeutic index,[2],14.4
3-Pyrrolidinopropylaminobleomycin,Antimicrobial potency,[1]; [3],1066 Unit/mg
same,Chemotherapeutic index,[2],19.2
"3-S,S-Dimethylmercaptopropylaminophleomycin",Antimicrobial potency,"[1]; phleomycins of Table 1, Bleomycin A2 (copper-free base) = 1000 U/mg",865 unit/mg
same,Average longevity (mean survival period in 50 days),[2]; [4],18.0
same,Longevity ratio (mean survival period to that of reference mouse multiplied by 100),[2]; [4],123
same,"Toxicity, number dead/total number",[2]; [4],0/5
same,"Viability (after 50 days), number survived/total number",[2]; [4],0/5
same,Average longevity (mean survival period in 50 days),[2]; [5],21.0
same,Longevity ratio (mean survival period to that of reference mouse multiplied by 100),[2]; [5],144
same,"Toxicity, number dead/total number",[2]; [5],0/5
same,"Viability (after 50 days), number survived/total number",[2]; [5],0/5
same,Average longevity (mean survival period in 50 days),[2]; [6],29.0
same,Longevity ratio (mean survival period to that of reference mouse multiplied by 100),[2]; [6],199
same,"Toxicity, number dead/total number",[2]; [6],0/5
same,"Viability (after 50 days), number survived/total number",[2]; [6],2/5
same,Average longevity (mean survival period in 50 days),[2]; [7],36.8
same,Longevity ratio (mean survival period to that of reference mouse multiplied by 100),[2]; [7],252
same,"Toxicity, number dead/total number",[2]; [7],0/5
same,"Viability (after 50 days), number survived/total number",[2]; [7],3/5
same,Average longevity (mean survival period in 50 days),[2]; [8],44.0
same,Longevity ratio (mean survival period to that of reference mouse multiplied by 100),[2]; [8],301
same,"Toxicity, number dead/total number",[2]; [8],0/5
same,"Viability (after 50 days), number survived/total number",[2]; [8],4/5
same,Average longevity (mean survival period in 50 days),[2]; [9],33.8
same,Longevity ratio (mean survival period to that of reference mouse multiplied by 100),[2]; [9],232
same,"Toxicity, number dead/total number",[2]; [9],3/5
same,"Viability (after 50 days), number survived/total number",[2]; [9],1/5
same,Average longevity (mean survival period in 50 days),[2]; [10],13.0
same,Longevity ratio (mean survival period to that of reference mouse multiplied by 100),[2]; [10],89
same,"Toxicity, number dead/total number",[2]; [10],5/5
same,"Viability (after 50 days), number survived/total number",[2]; [10],0/5
same,Average longevity (mean survival period in 50 days),[2]; [11],8.6
same,Longevity ratio (mean survival period to that of reference mouse multiplied by 100),[2]; [11],59
same,"Toxicity, number dead/total number",[2]; [11],5/5
same,"Viability (after 50 days), number survived/total number",[2]; [11],0/5
same,Chemotherapeutic index (LD50/ED50),"[2]; Tables 2 to 4, i.p., for 10 days, 72000 min",8.5
same,Prolongation effect on the survival period of ICR-SLC mouse inoculated with Ehrlich ascites carcinoma,[2]; as shown in Tables 2 and 3,distinct prolongation effect
same,LD50 (50 % lethal dose),"[2]; i.p., for 10 days, Behrens-Karber method, 72000 min",6.6 mg/kg/day
same,ED50 (50 % effective dose),"[2]; i.p., for 10 days, maximum dose level within the range of longevity ratio of 100 to 200, 72000 min",0.78 mg/kg/day
3-[3-N-(1-Phenylethyl)aminopropylamino]propylaminobleomycin,Antimicrobial potency,[1]; [3],9470 Unit/mg
same,Chemotherapeutic index,[2],18.1
"Cc1c(N)nc(C(CC(N)=O)NCC(N)C(N)=O)nc1C(=O)NC(C(=O)NC(C)C(O)C(C)C(=O)NC(C(=O)NCCc1nc(-c2nc(C(=O)NCCC[S+](C)C)cs2)cs1)C(C)O)C(OC1OC(CO)C(O)C(O)C1OC1OC(CO)C(O)C(OC(N)=O)C1O)c1cnc[nH]1 (centres unmarked) [3-S,S-Dimethylmercaptopropylaminobleomycin]",Antimicrobial potency,[1]; [3],920 Unit/mg
same,Chemotherapeutic index,[2],12.0
